Data from patent US20250129067A1 (Progentos Therapeutics, Inc., priority 2021, published 2025).
Where “and” joins values, the source holds several entries; their conditions need not be identical. Identical values can stand only once.

Key:
[1] = system: GPR17+ cells (newly differentiated oligodendrocytes); test: In vivo OPC differentiation, GPR17+ cells in brain; settings: for fold induction at 3 mg/kg / fold induction at 30 mg/kg / fold induction at 10 mg/kg: Mus musculus, po, 24 h, read-out: GPR17 Fold Induction (Over Vehicle)
Procedure: The ability of newly constructed compounds to drive OPC differentiation and myelination in vivo was tested. The ability of these compounds to drive OPC differentiation in vivo was tested using GPR17 as an indicator of newly differentiated oligodendrocytes.
Compounds were delivered PO or IP either QD or BID. Mice were dosed once, transiently, or continuously through the treatment period, which ranged from 1-3 days.
Mice were euthanized by isoflurane exposure and transcardially perfused with 14 mL of PBS (Sigma Cat #P4417-50TAB) followed by 22 mL of 3.2% paraformaldehyde in PBS. The brains were removed and postfixed for a minimum of 24 hours in 20 mL of 3.2% paraformaldehyde.
50-micron floating sections were cut using a Leica VT1200S vibratome. Every 24th section, extending through the antero-posterior extent of the brain, was stained. The selected brain sections were washed three times in PBS for 3 minutes each. The floating sections were incubated in the primary antibodies (see Table 10, below) diluted in blocking solution overnight at room temperature on a shaker. […] The next day, the sections were again washed three times in PBS for 3 minutes each and then incubated in the secondary antibodies diluted in blocking solution for 2 hours at room temperature on a shaker. After incubation, the sections were washed three times in PBS for 3 minutes each and mounted on a slide to be imaged using the Olympus Slide Scanner VS200.
The images were analyzed using a custom protocol developed using Visiopharm software to count GPR17+ cells. Cells were considered GPR17+ if they contained an Olig2 positive nucleus, and intense GPR 17 staining that filled their processes. Statistical analysis was done using one-way ANOVA with multiple comparison in GraphPad Prism software.

PDGFRα = PDGFRα (Homo sapiens (Human), UniProt P16234); test: PDGFRα kinase enzyme assay (Promega PDGFRα Kinase Enzyme System, ADP-Glo); assay type: biochemical; settings: 11-point dose response, 10,000 nM to 0.169 nM, 150 uM ATP, BLQ = below limit of quantitation; for IC50: read-out: IC50 Values on PDGFRα Kinase Inhibition, IC50
PDGFRα, sequence (P16234 24-1089): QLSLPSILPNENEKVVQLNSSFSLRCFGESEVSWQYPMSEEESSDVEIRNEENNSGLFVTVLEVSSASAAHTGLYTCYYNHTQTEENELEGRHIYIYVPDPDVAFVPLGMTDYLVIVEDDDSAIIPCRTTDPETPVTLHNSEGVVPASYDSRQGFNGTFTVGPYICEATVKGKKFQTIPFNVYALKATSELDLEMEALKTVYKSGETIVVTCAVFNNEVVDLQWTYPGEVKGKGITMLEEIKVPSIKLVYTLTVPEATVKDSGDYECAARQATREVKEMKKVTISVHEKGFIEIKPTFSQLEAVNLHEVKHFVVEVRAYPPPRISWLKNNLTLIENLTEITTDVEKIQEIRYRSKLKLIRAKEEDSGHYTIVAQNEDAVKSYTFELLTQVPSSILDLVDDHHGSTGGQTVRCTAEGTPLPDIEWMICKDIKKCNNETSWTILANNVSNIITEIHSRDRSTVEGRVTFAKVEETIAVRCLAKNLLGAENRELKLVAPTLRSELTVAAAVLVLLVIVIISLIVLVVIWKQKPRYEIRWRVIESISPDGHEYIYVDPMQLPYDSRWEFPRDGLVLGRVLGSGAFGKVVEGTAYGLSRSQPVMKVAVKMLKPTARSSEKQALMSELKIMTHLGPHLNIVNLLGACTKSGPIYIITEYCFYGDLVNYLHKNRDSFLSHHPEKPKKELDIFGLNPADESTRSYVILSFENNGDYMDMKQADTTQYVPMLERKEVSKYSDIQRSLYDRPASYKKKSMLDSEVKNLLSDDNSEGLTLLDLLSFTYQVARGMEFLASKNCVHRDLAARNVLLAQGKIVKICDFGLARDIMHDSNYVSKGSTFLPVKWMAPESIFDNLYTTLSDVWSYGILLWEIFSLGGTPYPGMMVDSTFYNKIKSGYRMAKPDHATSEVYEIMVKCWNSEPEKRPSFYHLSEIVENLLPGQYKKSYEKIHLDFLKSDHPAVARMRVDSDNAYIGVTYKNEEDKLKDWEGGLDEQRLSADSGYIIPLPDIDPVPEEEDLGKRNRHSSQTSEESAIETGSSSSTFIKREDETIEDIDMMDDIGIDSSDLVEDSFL
Method in brief: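 Read-out was ADP-Glo: remaining ATP depleted, ADP converted to luminescence and compared with a standard curve.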

[2] = system: Oligodendrocyte progenitor cells (OPCs); test: In vitro OPC differentiation assay, MBP expression (immunocytochemistry); settings: 72 hours of treatment; fold change over vehicle
[3] = system: Oligodendrocyte progenitor cells (OPCs); test: In vitro OPC differentiation assay, GPR17 expression (immunocytochemistry); settings: 72 hours, fold change over vehicle; for GPR17 Fold Induction (Over Vehicle; 3 μM): 3 μM (10× concentration, final 0.3 μM)

With `Cc1cccc(Cc2cnc(N3CCN(c4cnn5cc(-c6cnn(C)c6)ccc45)CC3)nc2)c1` [Compound 53, 3-{4-[5-(3-methylbenzyl)pyrimidin-2-yl]piperazin-1-yl}-6-(1-methyl-1H-pyrazol-4-yl)pyrazolo[1,5-a]pyridine] the fold induction at 3 mg/kg [1] was 1.22, the fold induction at 30 mg/kg [1] was 4.64 and the “GPR17 Fold Induction (Over Vehicle)” value ([1]; dose not assignable from Table 10, GPR17+ cells in brain, mice) was 1.41 fold. For the same compound, the IC50 (PDGFRα) was 249 nM, the “MBP Fold Induction (Over vehicle)” value [2] was 1.41 and the “GPR17 Fold Induction (Over Vehicle; 3 μM)” value [3] was 5.60.
With `CCC(CC)Cc1cnc(N2CCN(c3cnn4cc(-c5cnn(C)c5)ccc34)CC2)nc1` [Compound 153, 3-(4-(5-(2-ethylbutyl)pyrimidin-2-yl)piperazin-1-yl)-6-(1-methyl-1H-pyrazol-4-yl)pyrazolo[1,5-a]pyridine] the fold induction at 3 mg/kg [1] was 1.58, the IC50 (PDGFRα) was 1370 nM and the “MBP Fold Induction (Over vehicle)” value [2] was 4.86. For the same compound, the “GPR17 Fold Induction (Over Vehicle; 3 μM)” value [3] was 6.37.
With `Cn1cc(-c2cnc3c(N4CCN(c5ncc(Cc6ccccc6)cn5)CC4)cnn3c2)cn1` [Compound 7, 3-[4-(5-benzylpyrimidin-2-yl)piperazin-1-yl]-6-(1-methyl-1H-pyrazol-4-yl)pyrazolo[1,5-a]pyrimidine] the fold induction at 10 mg/kg [1] was 12.9, the IC50 (PDGFRα) was 2420 nM and the “MBP Fold Induction (Over vehicle)” value [2] was 2.1. The “GPR17 Fold Induction (Over Vehicle; 3 μM)” value [3] was 7.38 and the “GPR17 Fold Induction (Over Vehicle; 5 μM)” value ([3]; 5 μM (10× concentration, final 0.5 μM)) was 4.40 and 4.45.
For `Cn1cc(-c2ccc3c(N4CCN(C(=O)OCc5ccc(C#N)cc5)CC4)cnn3c2)cn1` [Compound 316, 4-cyanobenzyl 4-[6-(1-methyl-1H-pyrazol-4-yl)pyrazolo[1,5-a]pyridin-3-yl]piperazine-1-carboxylate], the fold induction at 3 mg/kg [1] was 2.36, the IC50 (PDGFRα) was 194 nM and the “MBP Fold Induction (Over vehicle)” value [2] was 34.99. The “GPR17 Fold Induction (Over Vehicle; 3 μM)” value [3] was 9.10.
For `Cn1cc(-c2ccc3c(N4CCN(c5ncc(Cc6cccnc6)cn5)CC4)cnn3c2)cn1` [Compound 251, 6-(1-methyl-1H-pyrazol-4-yl)-3-{4-[5-(pyridin-3-ylmethyl)pyrimidin-2-yl]piperazin-1-yl}pyrazolo[1,5-a]pyridine], the fold induction at 3 mg/kg [1] was 1.22, the IC50 (PDGFRα) was 1160 nM and the “MBP Fold Induction (Over vehicle)” value [2] was 9.20. For the same compound, the “GPR17 Fold Induction (Over Vehicle; 3 μM)” value [3] was 4.97.
In the case of `Cn1cc(-c2ccc3c(N4CCN(C(=O)O[C@@H](c5ccccc5)C(F)(F)F)CC4)cnn3c2)cn1` [Compound 64, (1S)-2,2,2-trifluoro-1-phenylethyl 4-[6-(1-methyl-1H-pyrazol-4-yl)pyrazolo[1,5-a]pyridin-3-yl]piperazine-1-carboxylate], the fold induction at 3 mg/kg [1] is reported as 2.13, the IC50 (PDGFRα) is reported as 38.4 nM and the “MBP Fold Induction (Over vehicle)” value [2] is reported as 7.73. The “GPR17 Fold Induction (Over Vehicle; 3 μM)” value [3] was 6.09.
For `CC(OC(=O)N1CCN(c2cnn3cc(-c4cnn(C)c4)ccc23)CC1)c1ccc(Cl)cc1` (stereo not drawn) [Compound 265, 1-(4-chlorophenyl)ethyl 4-(6-(1-methyl-1H-pyrazol-4-yl)pyrazolo[1,5-a]pyridin-3-yl)piperazine-1-carboxylate], the fold induction at 3 mg/kg [1] was 7.92, the “IC50 Values on PDGFRα Kinase Inhibition, IC50 (nM)” value (PDGFRα) was “BLQ” and the “MBP Fold Induction (Over vehicle)” value [2] was 20.78. For the same compound, the “GPR17 Fold Induction (Over Vehicle; 3 μM)” value [3] was 7.72.
With `C[C@@H](OC(=O)N1CCN(c2cnn3cc(-c4cnn(C)c4)ccc23)CC1)c1ccc(Cl)c(Cl)c1` [Compound 311, (1R)-1-(3,4-dichlorophenyl)ethyl 4-[6-(1-methyl-1H-pyrazol-4-yl)pyrazolo[1,5-a]pyridin-3-yl]piperazine-1-carboxylate] the fold induction at 3 mg/kg [1] was 2.52, the IC50 (PDGFRα) was 39.1 nM and the “MBP Fold Induction (Over vehicle)” value [2] was 10.47. The “GPR17 Fold Induction (Over Vehicle; 3 μM)” value [3] was 5.77.
For `Cn1cc(-c2ccc3c(N4CCN(c5nc(Cc6ccccc6)co5)CC4)cnn3c2)cn1` [Compound 58, 3-[4-(4-benzyl-1,3-oxazol-2-yl)piperazin-1-yl]-6-(1-methyl-1H-pyrazol-4-yl)pyrazolo[1,5-a]pyridine], the fold induction at 3 mg/kg [1] was 5.5, the IC50 (PDGFRα) was 300 nM and the “MBP Fold Induction (Over vehicle)” value [2] was 3.72. The “GPR17 Fold Induction (Over Vehicle; 3 μM)” value [3] was 7.31.
With `C[C@@H](NC(=O)N1CCN(c2cnn3cc(-c4cnn(C)c4)ccc23)CC1)c1ccc(Cl)cc1` [Compound 274, N-[(1R)-1-(4-chlorophenyl)ethyl]-4-[6-(1-methyl-1H-pyrazol-4-yl)pyrazolo[1,5-a]pyridin-3-yl]piperazine-1-carboxamide] the fold induction at 3 mg/kg [1] was 6.67, the IC50 (PDGFRα) was 49 nM and the “MBP Fold Induction (Over vehicle)” value [2] was 24.95. For the same compound, the “GPR17 Fold Induction (Over Vehicle; 3 μM)” value [3] was 5.01 and 9.78.
With `CC(C)(C)OC(=O)N1CCN(c2cnn3cc(-c4cnn(CCCN5CCOCC5)c4)ccc23)CC1` [Compound 233, tert-butyl 4-(6-(1-(3-morpholinopropyl)-1H-pyrazol-4-yl)pyrazolo[1,5-a]pyridin-3-yl)piperazine-1-carboxylate] the fold induction at 10 mg/kg [1] was 2.16, the IC50 (PDGFRα) was 692 nM and the “MBP Fold Induction (Over vehicle)” value [2] was 46.15. For the same compound, the “GPR17 Fold Induction (Over Vehicle; 3 μM)” value [3] was 9.27.
`Cn1cc(-c2ccc3c(N4CCN(c5ccc(Cc6ccccc6)cn5)CC4)cnn3c2)cn1` [Compound 249, 3-[4-(5-benzylpyridin-2-yl)piperazin-1-yl]-6-(1-methyl-1H-pyrazol-4-yl)pyrazolo[1,5a]pyridine] was tested, and the fold induction at 30 mg/kg [1] was 10.6, the IC50 (PDGFRα) was 1260 nM and the “MBP Fold Induction (Over vehicle)” value [2] was 1.64. The “GPR17 Fold Induction (Over Vehicle; 3 μM)” value [3] was 6.40.
For `C[C@@H](OC(=O)N1CCN(c2cnn3cc(-c4cnn(C)c4)ccc23)CC1)c1ccc2ccccc2c1` [Compound 312, (1R)-1-(2-naphthyl)ethyl 4-[6-(1-methyl-1H-pyrazol-4-yl)pyrazolo[1,5-a]pyridin-3-yl]piperazine-1-carboxylate], the fold induction at 3 mg/kg [1] was 1.53, the IC50 (PDGFRα) was 145 nM and the “MBP Fold Induction (Over vehicle)” value [2] was 18.49. For the same compound, the “GPR17 Fold Induction (Over Vehicle; 3 μM)” value [3] was 9.00.
With `C[C@@H](OC(=O)N1CCN(c2cnn3cc(-c4cnn(C)c4)ccc23)CC1)c1ccc(C(F)(F)F)cc1` [Compound 313, (1R)-1-[4-(trifluoromethyl)phenyl]ethyl 4-[6-(1-methyl-1H-pyrazol-4-yl)pyrazolo[1,5-a]pyridin-3-yl]piperazine-1-carboxylate] the fold induction at 3 mg/kg [1] was 10.5, the “IC50 Values on PDGFRα Kinase Inhibition, IC50 (nM)” value (PDGFRα) was “BLQ” and the “MBP Fold Induction (Over vehicle)” value [2] was 116.12. For the same compound, the “GPR17 Fold Induction (Over Vehicle; 3 μM)” value [3] was 10.56.
`C[C@@H](OC(=O)N1CCN(c2cnn3cc(-c4cnn(C)c4)ccc23)CC1)c1cccc2ccccc12` [Compound 269, (1R)-1-(1-naphthyl)ethyl 4-[6-(1-methyl-1H-pyrazol-4-yl)pyrazolo[1,5-a]pyridin-3-yl]piperazine-1-carboxylate] was tested, and the fold induction at 3 mg/kg [1] was 0.91, the IC50 (PDGFRα) was 138 nM and the “MBP Fold Induction (Over vehicle)” value [2] was 13.54. For the same compound, the “GPR17 Fold Induction (Over Vehicle; 3 μM)” value [3] was 5.70.
